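At the GI50, growth is halved. TGI is the concentration that stops growth completely.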
Tests used:
Test in all cases: growth of human tumour cells (NCI), 384-well format
[1] = test system: OVCAR-3 ovarian
[2] = test system: SR leukemia
[3] = test system: NCI-H23 lung
[4] = test system: SF-295 CNS
[5] = test system: OVCAR-5 ovarian
[6] = test system: PC-3 prostate
[7] = test system: UO-31 renal
[8] = test system: UACC-257 melanoma
[9] = test system: T-47D breast
[10] = test system: SNB-75 CNS
[11] = test system: SK-MEL-5 melanoma
[12] = test system: A498 renal
[13] = test system: MDA-MB-231 breast

For `CNCc1ccc(C)c(NC(=O)c2ccc(Nc3nc(-c4ccccc4)c4ccccc4n3)cc2)c1`, the GI50 [1] was 1780 nM, the TGI [1] was 3200 nM and the GI50 [2] was 342 nM. It also gave a TGI [2] of 799 nM, a GI50 [3] of 1830 nM and a TGI [3] of 3270 nM. It also gave a GI50 [4] of 1850 nM, a TGI [4] of 3260 nM and a GI50 [5] of 2040 nM. For the same molecule, the TGI [5] was 3990 nM, the GI50 [6] was 1690 nM and the TGI [6] was 3160 nM. It also gave a GI50 [7] of 1970 nM, a TGI [7] of 3400 nM and a GI50 [8] of 654 nM. For the same molecule, the TGI [8] was 1600 nM, the GI50 [9] was 1450 nM and the TGI [9] was 2780 nM. For the same molecule, the GI50 [10] was 1850 nM, the TGI [10] was 3300 nM and the GI50 [11] was 1390 nM. For the same molecule, the TGI [11] was 2690 nM, the GI50 [12] was 1630 nM and the TGI [12] was 3000 nM. The GI50 [13] was 1840 nM and the TGI [13] was 3250 nM.

From PubChem BioAssay (NCI)
